This note sets out measurements from patent US11192849B2, “Compounds, compositions, and methods for modulating ferroptosis and treating excitotoxic disorders” (THE TRUSTEES OF COLUMBIA UNIVERSITY IN THE CITY OF NEW YORK, priority 2013, dated 2021).

One test relates to ERK phosphorylation. Briefly: ERK phosphorylation Western blot in HT-1080 cells. It counts as cell-based, human. The method, then: Cells were trypsinized, pelleted, and washed once in PBS. Cells were lysed for 20 minutes in buffer containing: 50 mM HEPES pH 7.4, 40 mM NaCl, 2 mM EDTA, 0.5% Triton X-100, 1.5 mM sodium orthovanadate, 50 mM NaF, 10 mM sodium pyrophosphate, 10 mM sodium ß-glycerophosphate, and protease inhibitor tablet (Roche, Nutley, N.J.). Unlysed cells and debris were pelleted for 10 minutes at 10,000 rpm in a benchtop microcentrifuge at 4° C., and the supernatant was removed and mixed with 5×SDS loading buffer. Samples were separated by SDS-polyacrylamide gel electrophoresis. Western transfer was performed using the iBlot system (Invitrogen). Membrane was blocked for 1 hour in Licor Odyssey Blocking Buffer (LI-COR) and incubated in primary antibody overnight at 4° C. Following three 5-minute washes in Tris-buffered saline (pH 7.4) with 1% Tween-20 (TBS-T), membrane was incubated with secondary antibodies for 45 minutes in the dark. The membrane was washed again in TBST for three 5-minute washes with protection from light and scanned using the Odyssey Imaging System (LI-COR). Antibodies used were as follows: rabbit anti-phospho p42/44 MAPK (Cell Signaling Technology, #9101) and rabbit anti-p42/44 MAPK (Cell Signaling Technology, #9102). The secondary antibody was IR dye 800CW goat anti-rabbit IgG (LI-COR).

A further test concerns HT-1080 cells. Briefly: Mitochondrial ROS (MitoSOX) in HT-1080 cells. The note with it: rotenone 250 nM, 3 hr, Fer-1 1 μM. It counts as cell-based, human.
The test system of test [1] is rat organotypic hippocampal slice culture (OHSC). Briefly: Glutamate excitotoxic injury in organotypic hippocampal slice cultures (PI uptake). The note with it: 5 mM L-glutamate 3 hours; Fer-1 2 μM, CPX 5 μM, MK-801 10 μM; 24 hours. In kind it is cell-based. The method, then:
OHSCs were cultured as previously described (Morrison et al., 2002) with approval from Columbia University's Institutional Animal Care and Use Committee (IACUC). Briefly, Sprague Dawley rat pups (P8-P10) were rapidly decapitated, and the hippocampus placed in ice-cold Gey's balanced salt solution (Sigma). 400 μm thick sections were cut using a Mcllwain tissue chopper and immediately plated on Millicell cell culture inserts (Millipore, Billerica, Mass.) in Neurobasal (Invitrogen) media supplemented with B27 (1×, Invitrogen), GlutaMAX (1 mM, Invitrogen), and D-glucose (4.5 mg/mL, Sigma) at 37° C. and 5% CO2. After 2 days in vitro (DIV), the media was changed to medium containing serum comprised of 50% DMEM (Sigma), 25% heat-inactivated horse serum (Sigma), 25% Hank's balanced salt solution (Sigma), GlutaMAX (1 mM, Invitrogen), and D-glucose (4.5 mg/mL, Sigma). Medium was changed every 2-3 days.
After 10-14 DIV, OBSCs were exposed to an excitotoxic injury consisting of a 3 hour exposure to 5 mM L-glutamate in SFM (Morrison et al., 2002). […] After the 3 hour exposure, the cultures were placed in fresh serum free media (SFM) containing 75% DMEM, 25% Hank's balanced salt solution, GlutaMAX (1 mM), D-glucose (4.5 mg/mL) until cell death was quantified at 24 hours. […]
Quantification of cell death has been described previously (Cater et al., 2007; Morrison et al., 2002). […] Percentage cell death was expressed as the number of pixels in the ROI above a threshold in the PI fluorescent image divided by the total number of pixels in the ROI.
OHSCs were treated with a lethal excitotoxic stimulus (5 mM L-glutamate, 3 hours) that mimics the consequences of stroke and neurodegenerative disease (Morrison et al., 2002; Sundstrom et al., 2005) (FIG. 5A). […] The effects of these compound treatments on propidium iodide (PI) uptake were analyzed, as an indicator of cell death, 24 hours following the end of glutamate treatment, in 3 defined regions of the OHSCs: the dentate gyrus (DG), the CA1 and the CA3 fields of the hippocampus.

Turning to `CCOC(=O)c1ccc(NC2CCCCC2)c(N)c1` [SRS8-28 (Fer-1), ethyl 3-amino-4-(cyclohexylamino)benzoate], the ERK phosphorylation result in the test with ERK phosphorylation is reported as “did not inhibit ERK phosphorylation”. Further, the “accumulation of mitochondrial superoxide in response to rotenone” value in the test on HT-1080 cells is on record as “did not prevent”. Further, the “glutamate-induced cell death (PI uptake) in DG, CA1, CA3” value in test [1] is reported as “attenuated significantly”.
